Source: ChEMBL document CHEMBL1136598, “Design, synthesis, and structure-activity relationships of unsubstituted piperazinone-based transition state factor Xa inhibitors” (Bioorg Med Chem Lett, 2003)

Experiments:
[1] = biological target: Plasminogen (Homo sapiens, UniProt P00747); test: Inhibitory activity against Plasmin
[2] = biological target: Prothrombin (Homo sapiens, UniProt P00734); test: In vitro inhibitory activity against serine protease thrombin
[3] = biological target: T1, Coagulation factor X (Homo sapiens, UniProt P00742); test: In vitro inhibitory activity against factor Xa
T1 sequence (P00742 41-179 limits assumed): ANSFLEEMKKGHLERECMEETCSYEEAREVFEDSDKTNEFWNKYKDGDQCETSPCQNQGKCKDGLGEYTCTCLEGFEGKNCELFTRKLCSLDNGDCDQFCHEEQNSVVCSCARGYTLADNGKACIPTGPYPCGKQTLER
T1 sequence (P00742 235-488 limits assumed): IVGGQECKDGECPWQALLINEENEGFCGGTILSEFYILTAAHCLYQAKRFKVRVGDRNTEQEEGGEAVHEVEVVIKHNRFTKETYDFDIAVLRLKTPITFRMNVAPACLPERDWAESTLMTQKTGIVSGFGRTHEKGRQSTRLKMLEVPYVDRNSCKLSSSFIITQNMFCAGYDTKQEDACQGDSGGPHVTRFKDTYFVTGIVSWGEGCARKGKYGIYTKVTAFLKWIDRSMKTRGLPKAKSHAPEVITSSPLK

[4] = biological target: Tissue-type plasminogen activator (Homo sapiens, UniProt P00750); test: Inhibitory activity against tissue plasminogen activator (tissue plasminogen activator)
Sequence of Tissue-type plasminogen activator (P00750 whole entry): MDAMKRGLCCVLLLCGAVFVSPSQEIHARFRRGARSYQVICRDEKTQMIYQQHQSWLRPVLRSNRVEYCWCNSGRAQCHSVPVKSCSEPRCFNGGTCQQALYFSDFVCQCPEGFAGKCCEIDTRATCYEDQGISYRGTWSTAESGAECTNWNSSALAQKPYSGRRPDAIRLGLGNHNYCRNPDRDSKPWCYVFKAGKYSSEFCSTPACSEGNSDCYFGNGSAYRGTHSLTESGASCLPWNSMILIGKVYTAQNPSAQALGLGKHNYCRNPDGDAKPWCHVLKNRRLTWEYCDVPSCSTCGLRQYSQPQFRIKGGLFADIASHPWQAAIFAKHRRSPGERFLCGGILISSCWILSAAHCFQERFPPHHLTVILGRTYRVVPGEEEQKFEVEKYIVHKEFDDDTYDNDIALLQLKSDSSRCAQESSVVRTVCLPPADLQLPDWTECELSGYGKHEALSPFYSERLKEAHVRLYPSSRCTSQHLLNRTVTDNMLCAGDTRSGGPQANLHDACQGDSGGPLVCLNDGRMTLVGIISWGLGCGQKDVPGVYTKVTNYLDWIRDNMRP

[5] = biological target: T1, Coagulation factor X; test: (§1) In vitro binding affinity towards factor Xa
[6] = biological target: Serine protease 1 (Homo sapiens, UniProt P07477); test: Inhibitory activity against Trypsin
Sequence of Serine protease 1 (P07477 whole entry): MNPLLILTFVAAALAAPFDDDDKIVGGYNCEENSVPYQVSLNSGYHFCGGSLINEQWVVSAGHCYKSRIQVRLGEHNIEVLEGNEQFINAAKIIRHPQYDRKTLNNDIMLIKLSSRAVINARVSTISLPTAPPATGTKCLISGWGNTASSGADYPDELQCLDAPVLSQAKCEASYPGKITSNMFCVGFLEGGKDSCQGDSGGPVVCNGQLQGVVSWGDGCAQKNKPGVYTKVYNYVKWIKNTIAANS

[7] = biological target: Vitamin K-dependent protein C (Homo sapiens, UniProt P04070); test: Inhibitory activity against activated protein C (aPC)
Sequence of Vitamin K-dependent protein C (P04070 43-197 limits assumed): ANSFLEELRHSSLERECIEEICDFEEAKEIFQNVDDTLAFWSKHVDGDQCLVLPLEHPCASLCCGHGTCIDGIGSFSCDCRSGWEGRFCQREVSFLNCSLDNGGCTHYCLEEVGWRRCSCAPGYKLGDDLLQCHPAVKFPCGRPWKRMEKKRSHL
Sequence of Vitamin K-dependent protein C (P04070 212-461 limits assumed): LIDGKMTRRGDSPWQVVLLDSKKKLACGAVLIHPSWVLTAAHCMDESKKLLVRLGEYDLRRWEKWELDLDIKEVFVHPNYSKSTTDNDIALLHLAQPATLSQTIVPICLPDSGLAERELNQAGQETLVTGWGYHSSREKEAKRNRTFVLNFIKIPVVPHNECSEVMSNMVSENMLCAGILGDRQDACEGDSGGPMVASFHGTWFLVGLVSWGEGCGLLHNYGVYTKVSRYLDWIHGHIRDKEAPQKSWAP

[8] = Half life period after intravenous administration in rat; type: ADME, organism-based; conditions: in vivo
[9] = biological target: T1, Coagulation factor X; test: as §1; remark: listed apart in the source
[10] = Inhibitory activity against Kallikrein
[11] = test system: Oryctolagus cuniculus; test: In vivo inhibition thrombosis formation in rabbit; type: functional
[12] = In vivo half life period after intravenous administration in rat; type: ADME, organism-based
[13] = In vitro anticoagulant activity was measured by activated partial thromboplastin time (APTT) assay; type: functional
[14] = In vitro anticoagulant activity was measured by plasma based on thrombin generation (TG) assay; type: functional
[15] = test system: Oryctolagus cuniculus; test: In vivo plasma concentration required to inhibit thrombosis formation in rabbit; type: functional, organism-based
[16] = In vitro anticoagulant activity was measured by prothrombin time (PT) assay; type: functional

Sequence of Plasminogen (P00747 97-580 limits assumed): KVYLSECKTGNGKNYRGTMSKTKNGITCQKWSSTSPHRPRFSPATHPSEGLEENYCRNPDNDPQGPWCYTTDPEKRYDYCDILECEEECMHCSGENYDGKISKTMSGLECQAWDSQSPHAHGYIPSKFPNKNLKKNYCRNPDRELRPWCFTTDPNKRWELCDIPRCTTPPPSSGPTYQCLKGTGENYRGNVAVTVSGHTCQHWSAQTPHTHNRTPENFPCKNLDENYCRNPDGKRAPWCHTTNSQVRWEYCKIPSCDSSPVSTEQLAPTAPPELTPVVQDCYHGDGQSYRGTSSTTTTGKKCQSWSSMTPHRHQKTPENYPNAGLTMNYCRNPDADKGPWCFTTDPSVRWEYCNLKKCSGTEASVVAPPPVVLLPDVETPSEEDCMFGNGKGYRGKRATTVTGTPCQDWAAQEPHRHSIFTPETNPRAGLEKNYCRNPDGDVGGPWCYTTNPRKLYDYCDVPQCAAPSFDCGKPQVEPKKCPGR
Sequence of Plasminogen (P00747 581-810 limits assumed): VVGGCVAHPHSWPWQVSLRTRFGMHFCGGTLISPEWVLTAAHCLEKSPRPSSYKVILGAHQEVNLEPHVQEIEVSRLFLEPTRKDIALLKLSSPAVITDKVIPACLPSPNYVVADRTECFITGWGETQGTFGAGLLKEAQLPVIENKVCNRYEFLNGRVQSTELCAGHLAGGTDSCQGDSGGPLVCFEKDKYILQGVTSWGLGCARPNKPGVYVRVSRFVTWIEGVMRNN

Row | IC50 [2] | IC50 [3] | SMILES | other results
1 | 751 nM | 0.51 nM | Cc1c(S(=O)(=O)N2CCN(CC(=O)NC(CCCNC(=N)N)C(=O)c3nccs3)C(=O)C2)sc2ccc(Cl)cc12 (configuration not stated) | IC50 [1]: 1300 nM; IC50 [4]: 9960 nM; Ki [5]: 0.17 nM; IC50 [6]: 20 nM; IC50 [7]: 169000 nM; half-life [8]: 5 min
2 | 11000 nM | 17 nM | N=C(N)NCCC[C@@H](NC(=O)CN1CCN(C(=O)Cc2ccc(Cl)cc2)CC1=O)C(=O)c1nccs1 | –
3 | 134 nM | 5 nM | N=C(N)NCCCC(NC(=O)CN1CCN(S(=O)(=O)c2cccc(Cl)c2)CC1=O)C(=O)c1nccs1 (configuration not stated) | –
4 | 2000 nM | 5 nM | N=C(N)NCCC[C@@H](NC(=O)CN1CCN(S(=O)(=O)Cc2ccccc2)CCC1=O)C(=O)c1nccs1 | –
5 | 10000 nM | – | N=C(N)NCCC[C@@H](NS(=O)(=O)Cc1ccccc1)C(=O)NCC(=O)N[C@H](CCCNC(=N)N)C(=O)c1nccs1 | IC50 [1]: 309 nM; k on [9]: 6.5e+06 M⁻¹ s⁻¹; IC50 [4]: 329 nM; IC50 [10]: 27 nM; Inhibition [11]: 100%; IC50 [6]: 0.8 nM; half-life [12]: 24 min; 2x APTT [13]: 0.5 µM; IC50 [7]: 6000 nM; 2x TG [14]: 0.18 µM; Plasma concentration [15]: 0.07 µM; 2x PT [16]: 6.8 µM
6 | 38 nM | – | N=C(N)NCCC[C@@H](NC(=O)CN1CCCC[C@H](NS(=O)(=O)Cc2ccccc2)C1=O)C(=O)c1nccs1 | –
7 | 809 nM | 0.7 nM | N=C(N)NCCCC(NC(=O)CN1CCN(S(=O)(=O)c2ccc(Br)cc2)CC1=O)C(=O)c1nccs1 (configuration not stated) | –
8 | 17000 nM | 510 nM | N=C(N)NCCCC(NC(=O)CN1CCN(S(=O)(=O)c2ccc(C(=O)O)cc2)CC1=O)C(=O)c1nccs1 (configuration not stated) | –
9 | 7000 nM | 10 nM | N=C(N)NCCCC(NC(=O)CN1CCN(S(=O)(=O)c2ccc(NO)cc2)CC1=O)C(=O)c1nccs1 (configuration not stated) | –
10 | 6000 nM | 10 nM | N=C(N)NCCCC(NC(=O)CN1CCN(S(=O)(=O)c2ccc(C(F)(F)F)cc2)CC1=O)C(=O)c1nccs1 (configuration not stated) | –
11 | 573 nM | 1 nM | N=C(N)NCCCC(NC(=O)CN1CCN(S(=O)(=O)c2cc(Cl)c(Cl)cc2Cl)CC1=O)C(=O)c1nccs1 (configuration not stated) | –
12 | 7000 nM | 13 nM | N=C(N)NCCCC(NC(=O)CN1CCN(S(=O)(=O)/C=C/c2ccccc2)CC1=O)C(=O)c1nccs1 (configuration not stated) | –
13 | 5000 nM | 6 nM | N=C(N)NCCCC(NC(=O)CN1CCN(S(=O)(=O)c2ccc(N)cc2)CC1=O)C(=O)c1nccs1 (configuration not stated) | –
14 | 719 nM | 2 nM | N=C(N)NCCCC(NC(=O)CN1CCN(S(=O)(=O)c2cccc3nonc23)CC1=O)C(=O)c1nccs1 (configuration not stated) | –
15 | 417 nM | 8 nM | N=C(N)NCCC[C@@H](NC(=O)CN1CCN(S(=O)(=O)c2ccccc2)CC1=O)C(=O)c1nccs1 | –
16 | 267 nM | 1 nM | N=C(N)NCCCC(NC(=O)CN1CCN(S(=O)(=O)c2cccc3cnccc23)CC1=O)C(=O)c1nccs1 (configuration not stated) | –
17 | 118 nM | 2 nM | N=C(N)NCCCC(NC(=O)CN1CCN(S(=O)(=O)c2cccc3ccccc23)CC1=O)C(=O)c1nccs1 (configuration not stated) | –
18 | 751 nM | 2 nM | N=C(N)NCCCC(NC(=O)CN1CCN(S(=O)(=O)c2ccc(F)cc2)CC1=O)C(=O)c1nccs1 (configuration not stated) | –
19 | 3000 nM | 32 nM | N#Cc1ccc(S(=O)(=O)N2CCN(CC(=O)NC(CCCNC(=N)N)C(=O)c3nccs3)C(=O)C2)cc1 (configuration not stated) | –
20 | 1000 nM | 1 nM | N=C(N)NCCCC(NC(=O)CN1CCN(S(=O)(=O)c2ccc(Cl)c(Cl)c2)CC1=O)C(=O)c1nccs1 (configuration not stated) | –
21 | 4000 nM | 58 nM | CC(=O)Nc1nc(C)c(S(=O)(=O)N2CCN(CC(=O)NC(CCCN=C(N)N)C(=O)c3nccs3)C(=O)C2)s1 (configuration not stated) | –
22 | 375 nM | 3 nM | N=C(N)NCCCC(NC(=O)CN1CCN(S(=O)(=O)CCc2cccc3ccccc23)CC1=O)C(=O)c1nccs1 (configuration not stated) | –
23 | 870 nM | 2 nM | N=C(N)NCCC[C@@H](NC(=O)CNC(=O)[C@H](Cc1c[nH]c2ccccc12)NS(=O)(=O)Cc1ccccc1)C(=O)c1nccs1 | –
